Reference: patent US6552087B1 (Abbott GmbH & Co. KG, priority 1999, dated 2003)
Counter-ions that a name gives are not always drawn.

Tests used:
[1] = biological target: T1, noradrenaline reuptake site (Rattus norvegicus, UniProt Q63380); assay: Noradrenaline reuptake site binding assay in rat brain ([3H]nisoxetine); settings: for Hill slope, NA reuptake site: rat frontal cortex, [3H]nisoxetine, mean ± SEM
T1 construct: Adult male CD rats were killed by cervical dislocation, brains removed and frontal cortices (120-150 mg) immediately dissected; from tissue; host or cells: rat frontal cortex membranes (Sprague-Dawley derived CD rats)
Protocol: (§1) The IC50 was calculated using the following formula: [formula]
The supernatant was discarded and the pellet rehomogenised in Tris buffer, 1:60 w/v, and centrifuged at 40,000 g for 10 minutes. This step was repeated a further twice so that, in total, the brain tissue was homogenised and centrifuged four times. […] All centrifugations were carried out at 4° C.

dopamine reuptake site [2] = biological target: T2, dopamine reuptake site (Rattus norvegicus, UniProt P23977); assay: Dopamine reuptake site binding assay in rat brain ([3H]GBR 12935); settings: for Hill slope, DA reuptake site: rat striatum, [3H]GBR 12935, mean ± SEM
T2 construct: from tissue; host or cells: rat striatal membranes (Sprague-Dawley derived CD rats)
Protocol: as §1
Tissue was homogenised in ice-cold 0.32 M sucrose (1:80 w/v) using a motor driven teflon pestle (12 strokes, 800 rpm) and centrifuged at 1000 g for 12 minutes. […] All centrifugations were carried out at 4° C.

[3] = biological target: T3, noradrenaline reuptake site (Homo sapiens, UniProt P23975); assay: Noradrenaline reuptake site binding assay in human brain ([3H]nisoxetine); settings: human thalamus, mean ± SEM
T3 construct: Frozen thalamus was homogenised in ice-cold 0.25 M sucrose (1:40 w/v); from tissue; host or cells: human post-mortem thalamus membranes
Protocol: as §1
The pellet was resuspended in Tris buffer (1:40 w/v) and incubated at 37° C. for 10 min (to remove endogenous neurotransmitters) and recentrifuged at 35,000 g for 10 minutes. […] All centrifugations were carried out at 4° C.

dopamine reuptake site [4] = biological target: T4, dopamine reuptake site (Homo sapiens, UniProt Q01959); assay: Dopamine reuptake site binding assay in human brain ([3H]GBR 12935); settings: for Hill slope, DA reuptake site: human putamen, [3H]GBR 12935, mean ± SEM
T4 construct: Frozen putamen was homogenised in ice-cold 0.25 M sucrose (1:40 w/v); from tissue; host or cells: human post-mortem putamen membranes
Protocol: as §1
The membrane pellet was resuspended in Tris buffer (1:40 w/v) and incubated at 37° C. for 10 min (to remove endogenous neurotransmitters) and recentrifuged at 35,000 g for 10 minutes. […] All centrifugations were carried out at 4° C.

mice [5] = assay: Porsolt test in mice; type: in vivo; settings: Mus musculus, dose required to increase mobility by 50%
Protocol: This test was carried out according to the procedure described in Porsolt, R. D. (1981). Behavioural despair. In: Antidepressants: Neurochemical, Behavioural and Clinical Perspectives, ed. […] New York: Raven Press.
(§2) The test compounds were dissolved in deionised water. Control groups of mice were treated with either deionised water or the standard antidepressant, amitriptyline (30 mg/kg p.o.).
Data from the Porsolt test were analysed in two ways.

mice [6] = assay: Reserpine reversal screen in mice; type: in vivo; settings: Mus musculus, ip, reversal of reserpine-induced effects, reserpine 10 mg/kg i.p., read-out: ED50, Reserpine test in mice
Protocol: This was carried as described in U.S. Pat. No. 4,746,680 except that the dose of reserpine was 10 mg/kg (i.p.).
as §2
(§3) Data from the reserpine reversal screen in mice and the reserpine prevention test in rats were used to calculate ED50 values for the reversal and prevention of reserpine-induced effects respectively.

rats = assay: Prevention of reserpine-induced ptosis in rats; type: in vivo; settings: Rattus norvegicus, read-out: ED50, Reserpine test in rats
Protocol: A further standard test for antidepressants but relying on the ability of compounds to prevent rather than reverse reserpine-induced effects in rodents.
The compounds were tested as described in Prog. Neuro-Psychopharmacol. & Biol. Psychiat., 12, 575-584, Buckett et al. Rats were housed five per cage rather than six per cage and ptosis was assessed twice during 60 sec rather than during 30 sec.
as §3

T2 sequence (P23977 whole entry): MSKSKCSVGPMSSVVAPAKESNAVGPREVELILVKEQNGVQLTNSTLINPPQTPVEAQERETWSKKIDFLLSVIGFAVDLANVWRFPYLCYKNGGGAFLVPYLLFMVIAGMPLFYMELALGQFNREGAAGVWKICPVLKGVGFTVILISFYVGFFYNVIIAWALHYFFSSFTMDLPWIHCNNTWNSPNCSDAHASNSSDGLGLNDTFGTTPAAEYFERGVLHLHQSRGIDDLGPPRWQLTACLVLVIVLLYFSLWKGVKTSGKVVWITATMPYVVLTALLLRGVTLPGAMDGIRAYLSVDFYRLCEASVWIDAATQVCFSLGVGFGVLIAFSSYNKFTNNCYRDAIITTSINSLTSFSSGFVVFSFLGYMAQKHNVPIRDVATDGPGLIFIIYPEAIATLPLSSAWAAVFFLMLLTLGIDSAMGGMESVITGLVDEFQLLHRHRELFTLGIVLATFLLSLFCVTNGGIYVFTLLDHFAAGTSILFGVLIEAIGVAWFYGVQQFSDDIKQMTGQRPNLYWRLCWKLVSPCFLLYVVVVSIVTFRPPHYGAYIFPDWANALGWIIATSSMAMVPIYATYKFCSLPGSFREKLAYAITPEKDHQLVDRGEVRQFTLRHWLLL
T1 sequence (Q63380 1-617): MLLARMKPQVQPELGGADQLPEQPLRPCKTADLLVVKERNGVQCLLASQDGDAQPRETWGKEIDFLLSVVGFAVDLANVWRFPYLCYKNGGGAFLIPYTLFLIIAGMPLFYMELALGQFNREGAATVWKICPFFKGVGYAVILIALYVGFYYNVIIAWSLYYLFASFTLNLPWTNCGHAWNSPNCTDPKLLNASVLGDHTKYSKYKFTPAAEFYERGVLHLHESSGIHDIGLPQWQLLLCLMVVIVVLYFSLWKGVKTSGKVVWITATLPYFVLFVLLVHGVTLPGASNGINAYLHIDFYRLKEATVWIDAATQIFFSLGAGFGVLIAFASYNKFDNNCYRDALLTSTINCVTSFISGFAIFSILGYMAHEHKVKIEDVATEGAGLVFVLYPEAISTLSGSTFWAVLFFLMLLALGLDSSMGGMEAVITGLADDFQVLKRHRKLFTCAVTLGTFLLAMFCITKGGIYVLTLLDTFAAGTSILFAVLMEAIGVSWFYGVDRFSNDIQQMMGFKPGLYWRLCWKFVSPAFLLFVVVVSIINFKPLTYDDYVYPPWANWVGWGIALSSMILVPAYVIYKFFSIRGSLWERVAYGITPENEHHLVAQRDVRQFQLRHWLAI
T4 sequence (Q01959 whole entry): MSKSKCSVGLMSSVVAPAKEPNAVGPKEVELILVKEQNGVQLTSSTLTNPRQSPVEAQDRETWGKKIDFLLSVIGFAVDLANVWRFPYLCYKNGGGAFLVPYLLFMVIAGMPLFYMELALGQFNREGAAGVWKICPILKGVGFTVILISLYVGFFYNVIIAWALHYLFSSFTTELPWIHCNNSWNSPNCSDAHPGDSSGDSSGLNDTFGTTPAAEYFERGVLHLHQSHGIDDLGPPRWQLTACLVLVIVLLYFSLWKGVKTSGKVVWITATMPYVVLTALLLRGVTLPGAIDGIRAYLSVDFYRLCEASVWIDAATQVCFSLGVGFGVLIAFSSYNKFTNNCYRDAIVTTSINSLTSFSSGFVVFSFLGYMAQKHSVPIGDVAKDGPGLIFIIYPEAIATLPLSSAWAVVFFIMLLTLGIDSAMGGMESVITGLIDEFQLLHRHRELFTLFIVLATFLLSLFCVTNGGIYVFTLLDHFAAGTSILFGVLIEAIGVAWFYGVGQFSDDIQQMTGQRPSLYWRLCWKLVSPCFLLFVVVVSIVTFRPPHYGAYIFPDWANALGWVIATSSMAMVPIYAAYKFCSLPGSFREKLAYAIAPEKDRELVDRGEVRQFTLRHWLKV
T3 sequence (P23975 whole entry): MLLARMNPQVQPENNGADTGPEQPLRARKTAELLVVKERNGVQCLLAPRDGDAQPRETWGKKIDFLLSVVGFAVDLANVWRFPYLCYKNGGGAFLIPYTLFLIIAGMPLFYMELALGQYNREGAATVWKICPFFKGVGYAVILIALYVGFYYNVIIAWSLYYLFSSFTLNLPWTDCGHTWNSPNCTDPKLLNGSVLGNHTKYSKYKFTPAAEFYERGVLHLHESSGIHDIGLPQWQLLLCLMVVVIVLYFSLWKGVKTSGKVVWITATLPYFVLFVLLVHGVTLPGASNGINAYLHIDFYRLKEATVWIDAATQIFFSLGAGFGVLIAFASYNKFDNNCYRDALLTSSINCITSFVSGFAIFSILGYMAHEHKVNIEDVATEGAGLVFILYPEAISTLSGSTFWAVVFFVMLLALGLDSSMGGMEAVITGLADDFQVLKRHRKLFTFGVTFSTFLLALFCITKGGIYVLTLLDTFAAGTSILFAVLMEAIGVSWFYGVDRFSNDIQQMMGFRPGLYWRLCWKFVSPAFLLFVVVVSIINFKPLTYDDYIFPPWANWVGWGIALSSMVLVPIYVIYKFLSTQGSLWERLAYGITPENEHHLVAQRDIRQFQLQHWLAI

SMILES | Ki [1] | Hill slope, NA reuptake site [1] | Ki (dopamine reuptake site [2]) | Hill slope, DA reuptake site (dopamine reuptake site [2]) | Hill slope, NA reuptake site [3] | Ki (dopamine reuptake site [4]) | Hill slope, DA reuptake site (dopamine reuptake site [4]) | ED50 (mice [5]) | ED50 (mice [6]) | ED50 (rats)
CC(C)CC(N(C)C)C1(c2ccc(Cl)cc2)CCC1 (racemic) [Sibutramine, N,N-dimethyl-1-[1-(4-chlorophenyl)cyclobutyl]-3-methylbutylamine] | 86 ± 10 nM | [1.02 ± 0.02] | 3070 ± 50 nM | [1.14 ± 0.04] | [1.34 ± 0.01] | 943 ± 64 nM | [1.15 ± 0.04] | 1.8 mg/kg | 1.8 mg/kg | ~1.5 mg/kg
CC(C)C[C@@H](N(C)C)C1(c2ccc(Cl)cc2)CCC1 [(+)-Sibutramine, hydrochloride] | 3040 ± 233 nM | [1.02 ± 0.06] | 1650 ± 175 nM | [1.74 ± 0.20] | [0.97 ± 0.13] | 897 ± 125 nM | [1.29 ± 0.04] | 2.4 mg/kg | ~1 mg/kg | 0.7 mg/kg
CC(C)C[C@H](N(C)C)C1(c2ccc(Cl)cc2)CCC1.Cl [(−)-Sibutramine, (−)-N-{1-[1-(4-chlorophenyl)cyclobutyl]-3-methylbutyl}-N,N-dimethylamine hydrochloride] | 23800 ± 615 nM | [1.02 ± 0.08] | 4480 ± 65 nM | [2.07 ± 0.16] | [1.30 ± 0.04] | 2890 ± 363 nM | [1.25 ± 0.05] | 9.8 mg/kg | ~30 mg/kg | 59 mg/kg
